In experiment [1] the target is Serine/threonine-protein kinase SBK1 (Homo sapiens) (UniProt Q52WX2). Briefly: Selectivity interaction (Kinase panel (Z-LYTE Assay)) EUB0001632a SBK1. Particulars: at 10 µM.
The target in experiment [2] is Tyrosine-protein kinase receptor UFO (Homo sapiens) (UniProt P30530). Briefly: Selectivity interaction (Ambit KINOMEscan and KiNATiv profiling in Jurkat cells) EUB0000090b AXL. Type of experiment: cell-based. Particulars: at 1 µM.
The target in experiment [3] is CDK4/Cyclin D3 (Homo sapiens) (UniProt P11802+P30281). Particulars: at 10 µM.
The subject of experiment [4] is Mast/stem cell growth factor receptor Kit (Homo sapiens), P10721 [D816V]. Briefly: (§1) Selectivity interaction (KinomeScan (DiscoverX)) EUB0000666a KIT. Particulars: at 10 µM.
In experiment [5] the test system is Mast/stem cell growth factor receptor Kit (Homo sapiens), P10721 [V559D]. The description is as §1. As to conditions: at 10 µM.
Experiment [6] concerns the target Mast/stem cell growth factor receptor Kit (Homo sapiens, UniProt P10721). The experiment is described as §1. Particulars: at 10 µM.
For experiment [7], the system named is Mast/stem cell growth factor receptor Kit (Homo sapiens), P10721 [V559D,V654A]. Described as §1. Particulars: at 10 µM.
The test system of experiment [8] is Mast/stem cell growth factor receptor Kit (Homo sapiens), P10721 [L576P]. The description is as §1. Particulars: at 10 µM.
Sequence of Mast/stem cell growth factor receptor Kit (Homo sapiens), P10721 [L576P] (P10721 whole entry L576P): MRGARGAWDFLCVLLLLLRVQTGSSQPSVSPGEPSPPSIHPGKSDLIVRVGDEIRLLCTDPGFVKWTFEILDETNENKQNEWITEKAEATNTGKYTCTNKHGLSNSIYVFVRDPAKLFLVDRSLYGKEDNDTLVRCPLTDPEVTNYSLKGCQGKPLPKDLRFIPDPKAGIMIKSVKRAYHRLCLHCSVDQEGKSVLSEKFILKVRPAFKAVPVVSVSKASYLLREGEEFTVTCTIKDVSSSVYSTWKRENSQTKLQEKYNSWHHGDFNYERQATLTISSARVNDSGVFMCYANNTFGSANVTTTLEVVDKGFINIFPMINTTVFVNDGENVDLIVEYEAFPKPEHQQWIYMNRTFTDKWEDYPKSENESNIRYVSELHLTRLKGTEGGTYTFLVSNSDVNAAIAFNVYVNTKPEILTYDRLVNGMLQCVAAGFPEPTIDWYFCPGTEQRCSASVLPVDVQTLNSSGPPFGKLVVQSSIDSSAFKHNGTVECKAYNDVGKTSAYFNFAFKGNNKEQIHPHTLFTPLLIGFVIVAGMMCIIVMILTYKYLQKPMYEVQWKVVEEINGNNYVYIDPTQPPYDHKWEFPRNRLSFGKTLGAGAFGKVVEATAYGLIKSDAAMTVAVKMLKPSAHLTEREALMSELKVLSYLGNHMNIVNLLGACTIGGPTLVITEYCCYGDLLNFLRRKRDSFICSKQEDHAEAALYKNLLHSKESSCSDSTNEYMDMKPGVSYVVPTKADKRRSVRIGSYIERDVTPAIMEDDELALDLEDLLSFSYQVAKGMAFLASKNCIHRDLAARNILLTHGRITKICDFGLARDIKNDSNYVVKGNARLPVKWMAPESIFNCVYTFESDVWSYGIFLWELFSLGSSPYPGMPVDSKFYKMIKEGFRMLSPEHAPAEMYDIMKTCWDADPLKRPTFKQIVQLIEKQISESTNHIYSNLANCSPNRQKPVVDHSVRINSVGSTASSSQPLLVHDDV
Experiment [9] has as its system Mast/stem cell growth factor receptor Kit (Homo sapiens), P10721 [V559D,T670I]. The experiment is described as §1. As to conditions: at 10 µM.
The test system of experiment [10] is Mast/stem cell growth factor receptor Kit (Homo sapiens), P10721 [D816H]. Described as §1. As to conditions: at 10 µM.
Sequence of Mast/stem cell growth factor receptor Kit (Homo sapiens), P10721 [D816H] (P10721 whole entry D816H): as the sequence (P10721 whole entry L576P) above, with P576L, D816H counted along it
The subject of experiment [11] is Epidermal growth factor receptor (Homo sapiens), P00533 [UNDEFINED MUTATION]. Briefly: Selectivity interaction (KinomeScan (DiscoverX)) EUB0000655a EGFR. As to conditions: at 10 µM.
Experiment [12] concerns the target Mitogen-activated protein kinase kinase kinase 10 (Homo sapiens) (UniProt Q02779). Briefly: Selectivity interaction (KinomeScan (DiscoverX)) EUB0001079a MAP3K10. As to conditions: at 1 µM.
Experiment [13] has as its target Platelet-derived growth factor receptor alpha (Homo sapiens, UniProt P16234). As to the kind of experiment: Selectivity interaction (KinomeScan (DiscoverX)) EUB0001049a PDGFRA. As to conditions: at 1 µM.
In experiment [14] the target is Cysteinyl leukotriene receptor 1 (Homo sapiens) (UniProt Q9Y271). As to the kind of experiment: Selectivity interaction (Eurofins CEREP Diversity Profile (receptors and ion channels)) EUB0000279b CYSLTR1. As to conditions: at 10 µM.
Sequence of Cysteinyl leukotriene receptor 1 (Homo sapiens) (Q9Y271 whole entry): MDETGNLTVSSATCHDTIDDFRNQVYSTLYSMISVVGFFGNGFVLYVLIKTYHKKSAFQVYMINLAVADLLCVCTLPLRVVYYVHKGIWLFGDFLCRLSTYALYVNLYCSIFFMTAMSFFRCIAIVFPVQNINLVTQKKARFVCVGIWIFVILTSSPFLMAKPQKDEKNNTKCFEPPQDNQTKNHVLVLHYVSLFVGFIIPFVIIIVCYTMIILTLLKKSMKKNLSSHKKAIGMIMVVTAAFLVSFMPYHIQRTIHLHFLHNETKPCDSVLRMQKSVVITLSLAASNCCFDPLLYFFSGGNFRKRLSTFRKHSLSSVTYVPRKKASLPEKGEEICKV
Experiment [15] addresses PH-interacting protein (Homo sapiens) (UniProt Q8WWQ0). Briefly: Selectivity interaction (Bromodomain panel (DSF asssay)) EUB0000270b PHIP.
In experiment [16] the target is T1, Serine/threonine-protein kinase Nek3 (Homo sapiens) (UniProt P51956).
T1 sequence (whole entry): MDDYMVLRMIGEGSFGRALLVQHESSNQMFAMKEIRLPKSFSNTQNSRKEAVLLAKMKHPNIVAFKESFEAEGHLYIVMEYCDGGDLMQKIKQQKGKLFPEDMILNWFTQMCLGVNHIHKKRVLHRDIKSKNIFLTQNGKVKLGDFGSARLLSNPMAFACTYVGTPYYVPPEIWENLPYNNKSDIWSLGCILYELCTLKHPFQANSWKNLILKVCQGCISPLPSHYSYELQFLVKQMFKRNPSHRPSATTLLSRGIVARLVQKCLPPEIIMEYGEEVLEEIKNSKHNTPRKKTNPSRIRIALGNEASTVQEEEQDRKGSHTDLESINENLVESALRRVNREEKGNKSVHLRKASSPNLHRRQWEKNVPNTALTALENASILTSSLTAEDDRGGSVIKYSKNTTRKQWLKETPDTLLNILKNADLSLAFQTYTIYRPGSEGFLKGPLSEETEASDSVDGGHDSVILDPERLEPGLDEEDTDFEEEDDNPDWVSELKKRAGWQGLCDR
Briefly: Selectivity interaction (KinomeScan (DiscoverX)) EUB0000092b NEK3. As to conditions: at 10 µM.

Experiment [17] addresses T2, Serine/threonine-protein kinase Nek1 (Homo sapiens) (UniProt Q96PY6).
T2 sequence (whole entry): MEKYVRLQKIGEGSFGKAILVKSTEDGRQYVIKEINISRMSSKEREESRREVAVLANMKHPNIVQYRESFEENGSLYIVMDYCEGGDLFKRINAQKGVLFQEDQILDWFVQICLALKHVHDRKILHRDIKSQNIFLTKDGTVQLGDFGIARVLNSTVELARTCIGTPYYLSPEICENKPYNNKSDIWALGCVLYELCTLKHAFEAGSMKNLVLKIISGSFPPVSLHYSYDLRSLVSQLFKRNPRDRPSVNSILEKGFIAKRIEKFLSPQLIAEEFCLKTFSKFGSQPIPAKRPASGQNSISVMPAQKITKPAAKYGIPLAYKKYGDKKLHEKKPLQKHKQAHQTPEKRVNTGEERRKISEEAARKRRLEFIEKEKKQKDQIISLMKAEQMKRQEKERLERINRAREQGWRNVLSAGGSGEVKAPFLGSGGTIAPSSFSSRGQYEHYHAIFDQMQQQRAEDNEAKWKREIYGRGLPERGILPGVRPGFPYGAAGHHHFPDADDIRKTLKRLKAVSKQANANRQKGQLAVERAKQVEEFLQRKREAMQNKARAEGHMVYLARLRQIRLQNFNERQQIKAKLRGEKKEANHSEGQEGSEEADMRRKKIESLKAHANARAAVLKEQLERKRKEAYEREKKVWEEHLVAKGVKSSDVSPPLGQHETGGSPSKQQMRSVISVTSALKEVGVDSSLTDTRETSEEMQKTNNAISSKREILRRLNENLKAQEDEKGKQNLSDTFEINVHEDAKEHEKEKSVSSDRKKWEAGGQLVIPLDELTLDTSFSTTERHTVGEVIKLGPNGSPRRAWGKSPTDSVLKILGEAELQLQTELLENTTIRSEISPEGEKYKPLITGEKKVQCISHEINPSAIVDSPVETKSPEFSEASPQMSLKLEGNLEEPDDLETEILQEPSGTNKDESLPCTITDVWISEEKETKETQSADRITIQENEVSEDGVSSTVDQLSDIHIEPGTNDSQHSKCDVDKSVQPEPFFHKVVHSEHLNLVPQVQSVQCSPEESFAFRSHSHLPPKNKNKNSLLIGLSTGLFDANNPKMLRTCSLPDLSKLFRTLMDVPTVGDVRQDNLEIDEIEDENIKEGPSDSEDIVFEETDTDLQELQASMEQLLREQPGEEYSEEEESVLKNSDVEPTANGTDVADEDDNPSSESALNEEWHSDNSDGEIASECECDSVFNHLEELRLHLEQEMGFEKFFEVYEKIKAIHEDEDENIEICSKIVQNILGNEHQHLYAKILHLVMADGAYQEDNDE
As to the kind of experiment: Selectivity interaction (Kinase panel (DSF assay)) EUB0001559a NEK1. A general note: In DSF a fluorescence change marks the thermal transition of the protein.

In experiment [18] the target is Dual specificity protein kinase CLK1 (Homo sapiens, UniProt P49759). Briefly: Selectivity interaction (KinomeScan (DiscoverX)) EUB0001550a CLK1. Particulars: at 1 µM.
Experiment [19] addresses Ribosomal protein S6 kinase alpha-1 (Homo sapiens, UniProt Q15418). Briefly: Selectivity interaction (KinomeScan (DiscoverX)) EUB0000618a RPS6KA1. Particulars: at 10 µM.
Experiment [20] has as its target PAS domain-containing serine/threonine-protein kinase (Homo sapiens) (UniProt Q96RG2). Briefly: Selectivity interaction (Upstate Kinase Profiler service (Millipore)) EUB0000056c PASK. Particulars: at 1 µM.

Sequence of Mitogen-activated protein kinase kinase kinase 10 (Homo sapiens) (Q02779 whole entry, looked up): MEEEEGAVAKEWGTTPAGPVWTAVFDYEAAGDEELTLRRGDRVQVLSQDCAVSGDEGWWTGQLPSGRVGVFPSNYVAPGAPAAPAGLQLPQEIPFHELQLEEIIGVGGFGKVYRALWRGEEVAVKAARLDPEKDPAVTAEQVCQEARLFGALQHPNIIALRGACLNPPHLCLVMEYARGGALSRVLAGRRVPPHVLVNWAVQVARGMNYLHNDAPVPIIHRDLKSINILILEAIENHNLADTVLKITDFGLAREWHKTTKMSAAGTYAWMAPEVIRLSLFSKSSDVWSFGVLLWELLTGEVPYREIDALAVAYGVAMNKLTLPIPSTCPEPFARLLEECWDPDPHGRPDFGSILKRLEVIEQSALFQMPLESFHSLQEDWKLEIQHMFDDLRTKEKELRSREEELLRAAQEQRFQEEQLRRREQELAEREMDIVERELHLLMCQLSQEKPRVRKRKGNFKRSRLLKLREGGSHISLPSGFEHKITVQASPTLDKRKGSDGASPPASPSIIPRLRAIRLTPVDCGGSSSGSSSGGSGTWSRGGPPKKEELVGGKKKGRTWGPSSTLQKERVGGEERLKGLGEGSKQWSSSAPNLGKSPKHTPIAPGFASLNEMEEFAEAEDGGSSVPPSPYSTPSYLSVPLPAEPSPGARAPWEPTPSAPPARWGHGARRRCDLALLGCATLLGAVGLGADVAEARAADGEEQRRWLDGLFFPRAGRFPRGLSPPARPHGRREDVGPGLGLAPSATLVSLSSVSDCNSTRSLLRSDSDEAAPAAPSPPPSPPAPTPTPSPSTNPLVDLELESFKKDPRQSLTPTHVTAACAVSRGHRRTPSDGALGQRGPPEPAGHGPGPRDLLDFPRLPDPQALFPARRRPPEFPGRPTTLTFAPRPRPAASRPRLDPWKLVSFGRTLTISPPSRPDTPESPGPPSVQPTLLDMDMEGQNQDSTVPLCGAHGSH
Sequence of Mast/stem cell growth factor receptor Kit (Homo sapiens), P10721 [D816V] (P10721 whole entry D816V): as the sequence (P10721 whole entry L576P) above, with P576L, D816V counted along it
Sequence of Ribosomal protein S6 kinase alpha-1 (Q15418 whole entry, the tested form may be a part): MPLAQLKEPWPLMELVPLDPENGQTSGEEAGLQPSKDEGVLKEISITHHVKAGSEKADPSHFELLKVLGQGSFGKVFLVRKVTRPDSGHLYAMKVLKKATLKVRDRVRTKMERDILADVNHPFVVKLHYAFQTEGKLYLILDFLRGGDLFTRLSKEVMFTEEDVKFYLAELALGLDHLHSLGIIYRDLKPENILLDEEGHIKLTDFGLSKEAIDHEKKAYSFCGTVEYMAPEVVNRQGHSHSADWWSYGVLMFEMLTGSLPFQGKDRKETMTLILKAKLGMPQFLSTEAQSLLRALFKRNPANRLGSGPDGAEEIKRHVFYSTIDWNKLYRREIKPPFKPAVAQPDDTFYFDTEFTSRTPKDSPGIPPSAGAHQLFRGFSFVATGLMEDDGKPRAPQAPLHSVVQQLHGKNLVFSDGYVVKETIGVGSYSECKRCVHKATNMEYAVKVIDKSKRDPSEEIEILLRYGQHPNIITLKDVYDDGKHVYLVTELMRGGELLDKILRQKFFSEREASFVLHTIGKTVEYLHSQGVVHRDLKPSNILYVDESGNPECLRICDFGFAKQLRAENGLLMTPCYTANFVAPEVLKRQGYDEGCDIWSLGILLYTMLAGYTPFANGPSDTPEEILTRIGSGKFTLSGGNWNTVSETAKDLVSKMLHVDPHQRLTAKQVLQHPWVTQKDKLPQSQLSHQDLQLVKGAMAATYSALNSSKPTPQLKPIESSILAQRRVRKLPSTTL

As for `Cn1cc(-n2cnc3c(NCc4nc5cc(Cl)c(Cl)cc5[nH]4)nc(N4CCOCC4)nc32)cn1`, the % of control in [1] is -0.405%.
Take `CN(C)C/C=C/C(=O)Nc1ccc(C(=O)N2CCCC(Nc3ncc(Cl)c(-c4c[nH]c5ccccc45)n3)C2)cc1` (stereo not given): the % of control in experiment [2] is 92%.
With `Cc1cc([C@@H](C)Nc2ccccc2C(=O)O)c2nc(N3CCOCC3)cc(=O)n2c1` [AZD-6482], the % of control in experiment [3] is 100%.
Take `O=C(NOC[C@H](O)CO)c1ccc(F)c(F)c1Nc1ccc(I)cc1F`: the % of control came to 87% in experiment [4]; 74% in experiment [5]; 92% in [6]; 100% in experiment [7]; 75% in [8]; 90% in experiment [9]. In [10], the % of control was found to be 91%.
Regarding `CN(C)CCOc1ccc(-c2nc(-c3ccncc3)c(-c3ccc4c(c3)CC/C4=N\O)[nH]2)cc1`, the % of control in experiment [11] turned out to be 67%.
In the case of `Nc1cnc(N2CCc3cc(S(=O)(=O)Nc4c(F)cc(Cl)cc4F)cc(N4CCCC4=O)c32)nc1` [TP-020n], the % of control in experiment [12] is 75%.
On to `COc1cc(Nc2nc(C)cc(-c3cnn4nc(OC)ccc34)n2)cc(C(F)(F)F)c1`, for which the % of control in experiment [13] came to 69%.
As to `CC(=O)c1cc(-c2ccccc2OCC2CC2)c2ncccn12`, in experiment [14], the % of control was found to be 103%.
Take `Cc1cc(CN)cc(C)c1-c1ncn(C)c1-c1cncn1C`: in experiment [15], the dTM is -1.36 K.
Regarding `CCC(=O)N1CCN(c2ccc(-n3c(=O)ccc4cnc5ccc(-c6cnc7ccccc7c6)cc5c43)cc2C(F)(F)F)CC1`, the % of control in experiment [16] turned out to be 100%.
As to `CN(C(=O)c1cnn2cccnc12)c1cc2c(cc1N1CCOCC1)C(=O)N(C[C@@H](F)C(C)(C)O)C2`, the dTM in experiment [17] came out at 0.4 K.
As for `CN(C)CC#Cc1ccc2[nH]c3c(c2c1)-c1nc(N)ncc1CCC3`, in experiment [18], the % of control was 30%.
Regarding `O[C@H]1CC[C@H](Nc2ncc3nc(Nc4c(F)cc(F)cc4F)n([C@H]4CCOC4)c3n2)CC1`, in experiment [19], the % of control was determined as 70%.
On to `Cc1ccc(-c2ccc3c(ccc4sc5c(c43)NC[C@@H](C)NC5=O)n2)cn1`, for which, in [20], the % of inhibition is 44%.

These data come from ChEMBL document CHEMBL5465560, “Selectivity Literature for EUbOPEN Chemogenomic Library” (2024).
